The target in series [1] is T1, P-gp (Homo sapiens, UniProt P08183).
T1 construct: three cells expressing P-gp, Caco-2, KBv and rat brain microvessel endothelial cells (RBMEC); endogenous in cells; host or cells: Caco-2
The series is described as follows: Rh123 accumulation in non-induced KB cells. The series is classed as cell-based. Particulars: CLA 5 μmol/L, Rh123 5 μmol/L. On the procedure:
KB or its vinblastine-resistance derivative KBv cells[19] were maintained on 6-well plates (5 × 10^5 cells/well) in […] medium with 10% FBS, 100 units/mL penicillin and 100 μg/mL streptomycin sulphate at 37°C with 95% air and 5% CO2. After reaching 80%–90% confluence, the two cells were treated with the following agents, respectively: vehicle; (−)CLA (5 or 10 μmol/L); (+)CLA (5 or 10 μmol/L). Additionally, the KBv cells were treated with verapamil (200 μmol/L); or individual enantiomer (5 or 10 μmol/L) plus verapamil (200 μmol/L). Rh123 (5 μmol/L) were finally added to these wells. Subsequently, cell incubation, solubilisation and Rh123 accumulation were performed by using the same method for Caco-2 cells.

The test system of series [2] is P-gp. The series is described as follows: Rh123 accumulation in RBMECs. Particulars: RBMEC; for Increase in Rh123 accumulation relative to verapamil alone: co-treatment CLA 5 μmol/L with verapamil 200 μmol/L; for Percentage of rhodamine 123 accumulation relative to vehicle treatment: positive = increase. The format is cell-based, rat. The protocol:
The experimental programs in this part were approved by the Animal Care and Welfare Committee in our institute. Animals were treated in accordance with national/international guidelines. Primary cultures of brain microvessel endothelial cells were prepared from Sprague—Dawley rats (10–12 days old; Beijing Vital River Company, Beijing, China), as previously described by Qian et al.[21]. The gray matter of animals was taken out and minced into small pieces of approximately 1 mm^3 in ice-cold MEM medium, then dissociated by using 2 mg/mL collagenase containing DNase at a final concentration of 10.5 μg/ml on a shaker for 20 min at 37°C. The cells were pelleted by centrifugation(1000 rpm, 10 min, 4°C) and digested once again according to the above protocol. Then 20% dextran(Mr 40,000) was added to the cells for differential centrifugation at 2000 rpm for 10 min. The cells were re-suspended in complete MEM medium and passed through 74-μm stainless steel mesh. Obtained RBMECs were seeded on 1% (w/v) gelatin-coated culture flasks and cultivated in complete medium (MEM, 20% FBS, 0.9 mg/mL glutamate, 10 mmol/L hepes, 100 ng/mL bFGF, 100 μg/mL heparin sulphate, 100 units/mL penicillin, 100 μg/mL streptomycin sulphate and 50 units/mL amphotericin B) at 37°C and 5% CO2, which was refreshed with complete medium 4 h after seeding to eliminate non-endothelial cells. A final concentration of 2 μg/mL of puromycin was added for 7 h to further purify the cultured cells. The purity of RBMECs was examined by their morphological characteristics using a phase-contrast microscope, and immunocytochemistry of a specific marker, factor VIII-associated antigen, with a rabbit anti-factor VIII polyclonal antibody and FITC-conjugated goat anti-rabbit factor VIII secondary antibody by immunofluorescence microscopy (Olympus IX 70-S1Z2, Olympus Optical CO. Ltd., Japan). The P-gp expression in cultured cells was determined by Western blot analyses using a mouse monoclonal antibody raised against amino acids 1040–1280 of P-gp. When the cultures in the flasks reached 80%–90% confluence, the purified RBMECs were passaged by a brief treatment with trypsin (0.25%, w/v) and EDTA (0.02%, w/v) solution and seeded onto 6-well plates at a density of 5 × 10^5 cells/well; after 2–3 days, incubated with the following agents for 2 h under culture conditions (37°C, 5% CO2 and humidified air): vehicle; (−)CLA (1 or 5 μmol/L); (+)CLA (1 or 5 μmol/L); verapamil (200 μmol/L); or individual enantiomer (1 or 5 μmol/L) plus verapamil (200 μmol/L). In the end, Rh123 (5 μmol/L) was added to the whole wells. The cell incubation, solubilisation and Rh123 accumulation were performed according to the same method for Caco-2 cells described above.
Primary cultures of brain microvessel endothelial cells were prepared from Sprague–Dawley rats (10–12 days old; Beijing Vital River Company, Beijing, China), as previously described by Qian et al.[21]. Animals were anesthetized by intraperitoneal injection of 20% ethyl carbamate at dose of 1g/kg[35], and sterilized by immersion in 75% alcohol solution for 2 min. The gray matter of these animals was taken out and minced into small pieces of approximately 1 mm^3 in ice-cold MEM medium, then dissociated by using 2 mg/mL collagenase containing DNase at a final concentration of 10.5 μg/ml on a shaker for 20 min at 37°C. The cells were pelleted by centrifugation(1000 rpm, 10 min, 4°C) and digested once again according to the above protocol. Then 20% dextran(Mr 40,000) was added to the cells for differential centrifugation at 2000 rpm for 10 min. The cells were re-suspended in complete MEM medium and passed through 74-μm stainless steel mesh. […]

On the set-up of series [3]: method as in PMID 18655159. Particulars: cited from earlier work.
Details of series [4]: method as in PMID 12923804. The settings on record: rats; oral administration; n = 6; cited from earlier work.
The mark [5] stands for this setting: high dose, CLA 5 μmol/L, Rh123 5 μmol/L, 2 h.
The mark [6] stands for this setting: low dose, CLA 1 μmol/L, Rh123 5 μmol/L, 2 h.

Data on two compounds can be found in publication PMC4546427, “Stereoselective Regulation of P-gp Activity by Clausenamide Enantiomers in Caco-2, KB/KBv and Brain Microvessel Endothelial Cells” (PLoS ONE, 2015).

Structures are written as SMILES. “And” between values parts separate entries of the source, which are not always exact repeats. Identical values can stand only once.

T1 sequence (P08183 whole entry): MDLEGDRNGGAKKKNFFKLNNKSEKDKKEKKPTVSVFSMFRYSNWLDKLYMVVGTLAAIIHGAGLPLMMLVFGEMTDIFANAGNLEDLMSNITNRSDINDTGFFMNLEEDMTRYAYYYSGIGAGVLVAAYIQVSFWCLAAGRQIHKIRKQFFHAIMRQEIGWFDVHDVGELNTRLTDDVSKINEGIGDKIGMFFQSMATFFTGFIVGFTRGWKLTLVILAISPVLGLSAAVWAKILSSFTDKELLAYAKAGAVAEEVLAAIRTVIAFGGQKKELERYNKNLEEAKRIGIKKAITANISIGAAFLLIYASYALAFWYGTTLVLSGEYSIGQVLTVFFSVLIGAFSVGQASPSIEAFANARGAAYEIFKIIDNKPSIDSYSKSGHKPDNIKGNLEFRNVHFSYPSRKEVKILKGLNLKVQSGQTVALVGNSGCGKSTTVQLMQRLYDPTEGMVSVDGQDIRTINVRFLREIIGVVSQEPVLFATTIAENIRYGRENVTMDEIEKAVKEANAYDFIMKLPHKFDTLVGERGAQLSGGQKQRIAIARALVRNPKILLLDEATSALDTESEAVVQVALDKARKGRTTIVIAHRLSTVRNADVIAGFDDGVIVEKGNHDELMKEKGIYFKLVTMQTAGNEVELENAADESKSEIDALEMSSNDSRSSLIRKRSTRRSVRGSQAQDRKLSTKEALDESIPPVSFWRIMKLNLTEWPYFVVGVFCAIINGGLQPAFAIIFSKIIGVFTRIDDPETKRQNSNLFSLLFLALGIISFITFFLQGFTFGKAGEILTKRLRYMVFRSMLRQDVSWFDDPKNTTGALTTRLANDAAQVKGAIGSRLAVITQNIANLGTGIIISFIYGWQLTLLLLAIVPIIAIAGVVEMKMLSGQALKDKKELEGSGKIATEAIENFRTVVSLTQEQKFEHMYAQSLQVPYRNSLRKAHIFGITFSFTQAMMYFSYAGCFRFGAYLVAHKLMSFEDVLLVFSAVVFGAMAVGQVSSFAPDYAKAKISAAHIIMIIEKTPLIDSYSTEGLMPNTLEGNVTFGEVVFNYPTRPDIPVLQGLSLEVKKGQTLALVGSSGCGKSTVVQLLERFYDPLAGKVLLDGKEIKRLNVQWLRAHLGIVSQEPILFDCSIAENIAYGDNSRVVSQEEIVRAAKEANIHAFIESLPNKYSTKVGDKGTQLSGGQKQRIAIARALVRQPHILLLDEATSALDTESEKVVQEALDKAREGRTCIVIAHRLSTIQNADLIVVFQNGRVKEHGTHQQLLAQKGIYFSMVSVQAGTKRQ

Regarding `CN1C(=O)[C@H](O)[C@@H](c2ccccc2)[C@H]1[C@H](O)c1ccccc1` [(+)CLA, 3R,4S,5S,6R-CLA], the “Decrease of Rh123 accumulation vs. control” value on P-gp [1] amounted to 28.2%. The “Decrease of Rh123 accumulation relative to vehicle control” value in the series on P-gp [2] (CLA 1 μmol/L, Rh123 5 μmol/L, 2 h) was 20.0%. Besides, in the series with P-gp [2], the “Increase in Rh123 accumulation relative to verapamil alone” value was 18.5%. The “Decrease in Rh123 accumulation relative to verapamil alone” value with P-gp [2] (co-treatment of verapamil 200 μmol/L with CLA 1 μmol/L) worked out at 26.5%. Further, the “Percentage of rhodamine 123 accumulation relative to vehicle treatment” value was 41.1% and 41.13% in the series on P-gp [2] (setting [5]); -20.04% in the series with P-gp [2] (setting [6]). The “AUC0–∞ in target tissues (hippocampus, cortex and cerebellum), comparison of enantiomers” value in series [3] is listed as “greater values for AUC0–∞ than did (−)CLA”. Besides, the “AUC0–12 h” value in series [4] is 2446 ± 540 µg·min/mL.

For `CN1C(=O)[C@@H](O)[C@H](c2ccccc2)[C@@H]1[C@@H](O)c1ccccc1` [(−)CLA, 3S, 4R, 5R, 6S-clausenamide], on P-gp [1], the “Increase of Rh123 accumulation vs. control” value came to 18.0%. Besides, in the series with P-gp [2], the “Increase in Rh123 accumulation relative to verapamil alone” value turned out to be 24.5%. Besides, the “Percentage of rhodamine 123 accumulation relative to vehicle treatment” value with P-gp [2] (setting [5]) was 58.46%; with P-gp [2] (setting [6]), 20.0% and 20.04%. Also, in the series with P-gp [2] (verapamil 200 μmol/L plus CLA 1 μmol/L), the “Rh123 accumulation relative to verapamil alone (in words)” value is reported as “slightly increased trend”. The “Amount that entered into rat brain, comparison of enantiomers” value in series [3] (15 min after oral administration, P < 0.001) is listed as “significantly greater than that of the (+)-isomer”. For the same compound, the “AUC0–12 h” value in series [4] was 1256 ± 308 µg·min/mL.
